# From PubChem BioAssay (NCI)
#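 Method: 48-hour compound exposure of cells in 96-well plates, five concentrations, linear interpolation of endpoints. GI50: concentration for 50% inhibition of growth. TGI: concentration producing complete growth inhibition.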
# Columns and labels:
# Assay in all cases: NCI tumour cell line growth inhibition, 48 h
# SNB-78 CNS = tested on: SNB-78 CNS
# XF 498 CNS = tested on: XF 498 CNS
# SK-MEL-2 melanoma = tested on: SK-MEL-2 melanoma
# HOP-92 NSCLC = tested on: HOP-92 NSCLC
# DLD-1 colon = tested on: DLD-1 colon
# KM20L2 colon = tested on: KM20L2 colon
# SK-OV-3 ovarian = tested on: SK-OV-3 ovarian
# MDA-MB-435 = tested on: MDA-MB-435
# T-47D breast = tested on: T-47D breast
# MDA-N = tested on: MDA-N
# PC-3 prostate = tested on: PC-3 prostate
# BT-549 breast = tested on: BT-549 breast
# 786-0 renal = tested on: 786-0 renal
SMILES,TGI (SNB-78 CNS),TGI (XF 498 CNS),TGI (SK-MEL-2 melanoma),TGI (HOP-92 NSCLC),TGI (DLD-1 colon),TGI (KM20L2 colon),TGI (SK-OV-3 ovarian),TGI (MDA-MB-435),TGI (T-47D breast),TGI (MDA-N),TGI (PC-3 prostate),TGI (BT-549 breast),GI50 (MDA-MB-435),GI50 (SK-MEL-2 melanoma),GI50 (HOP-92 NSCLC),GI50 (T-47D breast),GI50 (SK-OV-3 ovarian),GI50 (PC-3 prostate),GI50 (BT-549 breast),TGI (786-0 renal)
Cc1cccc2nc3c(C(=O)NCCN(C)C)cccc3cc12,12.6 µM,3.24 µM,3.46 µM,3.99 µM,7.78 µM,4.98 µM,7.9 µM,–,–,–,–,–,–,–,–,–,–,–,–,–
CNC(=O)OC(C)CN1c2ccccc2Sc2ccc(Cl)cc21 (stereo not drawn),–,–,> 10 µM,–,–,–,> 10 µM,> 10 µM,> 10 µM,> 10 µM,> 10 µM,–,–,–,–,–,–,–,–,–
CCS(=O)(=O)Nc1ccc(Nc2c3ccccc3nc3ccccc23)c(OC)c1,18.4 µM,2.01 µM,18.8 µM,5.35 µM,17.3 µM,6.44 µM,5.89 µM,–,–,–,–,–,–,–,–,–,–,–,–,–
COc1cc(C2C(C(=O)O)=C(CO)Oc3cc4c(cc32)OCO4)cc(OC)c1O (stereo not drawn),> 100 µM,–,–,> 100 µM,> 100 µM,> 100 µM,> 100 µM,–,–,–,–,–,–,–,–,–,–,–,–,–
CCOC(=O)CSc1nc(N)c2c(-c3ccc(OC)c(OC)c3)c3c(nc2n1)CCCC3,–,–,–,–,–,–,> 100 µM,> 100 µM,> 100 µM,> 100 µM,> 100 µM,> 100 µM,–,–,–,–,–,–,–,–
CC1SC(c2ccccc2)N(CCc2cccs2)C1=O (stereo not drawn),–,–,14.7 µM,5.59 µM,–,–,20.9 µM,16.7 µM,18.7 µM,–,15.7 µM,12.9 µM,3.63 µM,3.42 µM,1.27 µM,2.16 µM,7.64 µM,2.68 µM,3.35 µM,–
COc1ccc2nc(-c3ccc(-c4noc(-c5cc(OC)c(OC)c(OC)c5)n4)cc3)[nH]c2c1,–,–,51.1 µM,33.5 µM,–,–,64.8 µM,39.8 µM,35.9 µM,–,> 100 µM,–,4.27 µM,18.9 µM,14.3 µM,14.7 µM,25.3 µM,20.5 µM,–,–
CCOC(=O)c1nc2ccc(Cl)cc2c2c1Cc1ccccc1-2,> 100 µM,> 100 µM,> 100 µM,–,> 100 µM,> 100 µM,–,–,–,–,–,–,–,–,–,–,–,–,–,> 100 µM
CC(=O)Nc1cc([As](=O)(O)O)ccc1O,–,–,> 100 µM,> 100 µM,–,–,> 100 µM,> 100 µM,> 100 µM,> 100 µM,> 100 µM,> 100 µM,–,–,–,–,–,–,–,> 100 µM
CN(C)CC(=O)Nc1ccc(Cn2nnc3c2C(=O)c2nnn(Cc4ccc(NC(=O)CN(C)C)cc4)c2C3=O)cc1,–,–,–,–,–,–,0.222 µM,0.198 µM,0.449 µM,–,0.825 µM,–,0.0708 µM,–,–,0.166 µM,0.0949 µM,0.253 µM,–,–
COc1ccc(/C(=C2/O[C@@H]([C@H]3COC(C)(C)O3)[C@H]3OC(C)(C)O[C@@H]23)c2cc(OC)c(OC)c(OC)c2)cc1O,–,–,8.44 µM,38.3 µM,–,–,91.7 µM,5.54 µM,> 100 µM,–,> 100 µM,–,2.15 µM,3.26 µM,4 µM,44.3 µM,12.6 µM,4.12 µM,–,–
CN1CC[C@@]2(c3cccc(O)c3)CC(=O)/C(=C/c3ccccc3)[C@H]1C2,–,–,87.2 µM,31 µM,–,–,–,13.9 µM,–,16.4 µM,14.4 µM,26.7 µM,–,–,–,–,–,–,–,25 µM
COc1ccc2nc(N/N=C/C(C)=N/Nc3cc(C)c4cc(OC)ccc4n3)cc(C)c2c1,–,–,> 82.1 µM,> 89.9 µM,–,–,> 100 µM,62.1 µM,> 73.6 µM,55.5 µM,45.6 µM,> 100 µM,–,–,–,–,–,–,–,28 µM
